How the values were obtained:
Format in all cases: cell-based
Details in all cases: 72 hours treatment, cell survival by CellTiter-Glo, 2% fetal bovine serum
MelJuSo cells = experiment: Cell viability (CellTiter-Glo ATP content) in MelJuSo cells
Summary of the method: (§1)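 Cells plated at 5,000 per well in antibiotic-free RPMI with 2% FBS, treated next day in triplicate with increasing compound doses (final DMSO 0.5%) for 72 hours. Viability read as ATP content by CellTiter-Glo luminescence; percent survival relative to vehicle control set as 100%.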

LOX cells = experiment: Cell viability (CellTiter-Glo ATP content) in LOX cells
Summary of the method: as §1

A549 cells = experiment: Cell viability (CellTiter-Glo ATP content) in A549 cells
Summary of the method: as §1

| SMILES | IC50 (MelJuSo cells; Homo sapiens, MEL-JUSO) [µM] | IC50 (LOX cells; LOX, 72 h) [µM] | IC50 (A549 cells; Homo sapiens, A549, 72 h) [µM] | IC50 (MelJuSo cells) [µM] | IC50 (LOX cells) [µM] | IC50 (A549 cells) [µM] |
| --- | --- | --- | --- | --- | --- | --- |
| COC(=O)CNC(=O)C1(C)C(c2ccoc2)C(c2ccc(F)cc2F)=NN1c1ccc(F)cc1F (stereo not drawn) [Compound 131, methyl 2-(1,3-bis(2,4-difluorophenyl)-4-(furan-3-yl)-5-methyl-4,5-dihydro-1H-pyrazole-5-carboxamido)acetate] | 0.25 to 0.5 | 0.5 to 1 | 0.5 to 1 |  |  |  |
| COC(=O)[C@H](C)NC(=O)C1(C)C(c2ccoc2)C(c2ccc(F)cc2F)=NN1c1ccc(F)cc1F (stereo partly drawn) [Compound 132, (2S)-methyl 2-(1,3-bis(2,4-difluorophenyl)-4-(furan-3-yl)-5-methyl-4,5-dihydro-1H-pyrazole-5-carboxamido)propanoate] | > 2 | > 2 | > 2 |  |  |  |
| CC(C)(CO)CCCNC(=O)C1(C)C(c2ccc(Cl)o2)C(c2ccc(F)cc2F)=NN1c1ccc(F)cc1F (stereo not drawn) [Compound 133, 4-(5-chlorofuran-2-yl)-1,3-bis(2,4-difluorophenyl)-N-(5-hydroxy-4,4-dimethylpentyl)-5-methyl-4,5-dihydro-1H-pyrazole-5-carboxamide] | < 0.25 | < 0.25 | < 0.25 |  |  |  |
| COC(=O)CNC(=O)C1(C)C(c2ccc(Cl)o2)C(c2ccc(F)cc2F)=NN1c1ccc(F)cc1F (stereo not drawn) [Compound 134, methyl 2-(4-(5-chlorofuran-2-yl)-1,3-bis(2,4-difluorophenyl)-5-methyl-4,5-dihydro-1H-pyrazole-5-carboxamido)acetate] |  |  |  | < 0.25 | < 0.25 | < 0.25 |
| CN1CCOC(CNC(=O)C2(C)C(c3ccc(Cl)o3)C(c3ccc(F)cc3F)=NN2c2ccc(F)cc2F)C1 (stereo not drawn) [Compound 135, 4-(5-chlorofuran-2-yl)-1,3-bis(2,4-difluorophenyl)-5-methyl-N-((4-methylmorpholin-2-yl)methyl)-4,5-dihydro-1H-pyrazole-5-carboxamide] | < 0.25 | < 0.25 | < 0.25 |  |  |  |
| CC(C)(CO)CCCNC(=O)C1(C)C(c2ccc(F)cc2F)=NN(c2ccc(F)cc2F)C1c1ccc(Cl)o1 (stereo not drawn) [Compound 136, 5-(5-chlorofuran-2-yl)-1,3-bis(2,4-difluorophenyl)-N-(5-hydroxy-4,4-dimethylpentyl)-4-methyl-4,5-dihydro-1H-pyrazole-4-carboxamide] | 1 to 2 | > 2 | > 2 |  |  |  |
| COC(=O)CNC(=O)C1(C)C(c2ccc(F)cc2F)=NN(c2ccc(F)cc2F)C1c1ccc(Cl)o1 (stereo not drawn) [Compound 137, methyl 2-(5-(5-chlorofuran-2-yl)-1,3-bis(2,4-difluorophenyl)-4-methyl-4,5-dihydro-1H-pyrazole-4-carboxamido)acetate] | 0.5 to 1 | > 2 | > 2 |  |  |  |
| CC(C)(C)OC(=O)N1CCOC(CNC(=O)C2(C)C(c3ccc(Cl)o3)C(c3ccc(F)cc3F)=NN2c2ccc(F)cc2F)C1 (stereo not drawn) [Compound 138, tert-butyl 2-((4-(5-chlorofuran-2-yl)-1,3-bis(2,4-difluorophenyl)-5-methyl-4,5-dihydro-1H-pyrazole-5-carboxamido)methyl)morpholine-4-carboxylate] | > 2 | > 2 | > 2 |  |  |  |
